Like-named read-outs stand apart in the source and are kept apart here.
Assays:
Assay type in all cases: biochemical
Btk = target: T1, Btk (Homo sapiens, UniProt Q06187); experiment: Btk in vitro inhibitory activity (one of Method A TR-FRET, Method B electrophoretic mobility shift, Method C radiometric filter binding)
T1 construct: purified from insect cells as a full-length construct containing a N-terminal 6X-His tag; His6 (N); made in house; host or cells: insect cells (Method C)
Summary of the method: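 Method A: TR-FRET with 0.5 nM Btk at [ATP]=Km, EDTA-quenched, 665/615 nm ratio; Ki(app) converted to IC50. Method B: 1 nM full-length His6 human BTK, 1 μM FAM peptide, pH 7.5, mobility-shift product/sum ratio, 12-point 4-parameter fit. Method C: radiometric filter binding, 8 nM His-tagged BTK, 0.2 mg/mL poly-Glu-Tyr.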

panel of kinases = target: T2, panel of kinases (Homo sapiens, UniProt P51813); experiment: Inhibition of a panel of kinases (in vitro HotSpot kinase assay, 33P-ATP, 1 μM ATP), other kinases; conditions: BMX wild-type, read-out: BMX-WT IC50
T2 sequence (P51813 1-675): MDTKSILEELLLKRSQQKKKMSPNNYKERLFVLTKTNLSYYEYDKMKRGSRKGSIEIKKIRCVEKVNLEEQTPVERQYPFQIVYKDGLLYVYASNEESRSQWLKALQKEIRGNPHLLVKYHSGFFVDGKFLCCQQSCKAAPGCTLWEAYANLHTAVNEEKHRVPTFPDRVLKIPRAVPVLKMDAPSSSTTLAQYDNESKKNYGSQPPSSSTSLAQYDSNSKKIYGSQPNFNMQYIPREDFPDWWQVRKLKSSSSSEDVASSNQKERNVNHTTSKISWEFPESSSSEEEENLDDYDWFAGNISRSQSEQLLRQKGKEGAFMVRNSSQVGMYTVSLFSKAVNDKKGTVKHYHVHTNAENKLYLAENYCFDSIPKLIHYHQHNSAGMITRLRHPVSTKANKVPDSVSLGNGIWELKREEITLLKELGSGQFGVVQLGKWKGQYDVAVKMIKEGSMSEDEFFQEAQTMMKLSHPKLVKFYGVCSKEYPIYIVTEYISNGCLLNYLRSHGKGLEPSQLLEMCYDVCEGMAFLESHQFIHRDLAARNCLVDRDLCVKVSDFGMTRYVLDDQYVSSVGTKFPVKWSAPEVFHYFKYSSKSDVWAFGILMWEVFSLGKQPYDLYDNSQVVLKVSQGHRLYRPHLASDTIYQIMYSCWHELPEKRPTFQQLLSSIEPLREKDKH
Summary of the method: (§1)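 Purified kinase enzymes were incubated with an appropriate substrate and 33P-labelled ATP at 1 μM ATP. Inhibition was measured radiometrically from incorporation of the 33P label.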

TEC = target: T3, TEC (Homo sapiens, UniProt P42680); experiment: Inhibition of a panel of kinases (in vitro HotSpot kinase assay, 33P-ATP, 1 μM ATP); conditions: for IC50: HotSpot kinase assay, 1 μM ATP; for TEC/Btk: ratio of TEC IC50 to Btk IC50 (selectivity)
T3 sequence (P42680 1-631): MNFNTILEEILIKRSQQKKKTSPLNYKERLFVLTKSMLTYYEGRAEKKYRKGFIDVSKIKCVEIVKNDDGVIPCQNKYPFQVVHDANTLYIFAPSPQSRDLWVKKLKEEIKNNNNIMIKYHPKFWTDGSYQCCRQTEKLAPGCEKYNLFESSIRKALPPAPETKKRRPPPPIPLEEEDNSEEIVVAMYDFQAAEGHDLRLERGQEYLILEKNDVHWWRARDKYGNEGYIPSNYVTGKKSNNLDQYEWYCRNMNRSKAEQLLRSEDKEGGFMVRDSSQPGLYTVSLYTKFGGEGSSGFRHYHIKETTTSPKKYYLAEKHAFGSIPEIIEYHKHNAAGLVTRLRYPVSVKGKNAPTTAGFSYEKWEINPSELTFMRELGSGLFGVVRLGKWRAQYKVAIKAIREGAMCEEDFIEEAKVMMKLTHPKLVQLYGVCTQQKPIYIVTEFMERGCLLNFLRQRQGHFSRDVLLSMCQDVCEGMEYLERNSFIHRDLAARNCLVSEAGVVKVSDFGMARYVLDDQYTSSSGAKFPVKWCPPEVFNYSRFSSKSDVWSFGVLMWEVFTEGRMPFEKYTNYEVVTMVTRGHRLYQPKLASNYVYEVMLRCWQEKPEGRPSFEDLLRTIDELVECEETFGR
Summary of the method: as §1

[1] = method is one of A, B or C, not stated which, read-out: IC50 values against Btk
[2] = wild-type Btk, read-out: Btk-WT IC50

T1 sequence (Q06187 whole entry): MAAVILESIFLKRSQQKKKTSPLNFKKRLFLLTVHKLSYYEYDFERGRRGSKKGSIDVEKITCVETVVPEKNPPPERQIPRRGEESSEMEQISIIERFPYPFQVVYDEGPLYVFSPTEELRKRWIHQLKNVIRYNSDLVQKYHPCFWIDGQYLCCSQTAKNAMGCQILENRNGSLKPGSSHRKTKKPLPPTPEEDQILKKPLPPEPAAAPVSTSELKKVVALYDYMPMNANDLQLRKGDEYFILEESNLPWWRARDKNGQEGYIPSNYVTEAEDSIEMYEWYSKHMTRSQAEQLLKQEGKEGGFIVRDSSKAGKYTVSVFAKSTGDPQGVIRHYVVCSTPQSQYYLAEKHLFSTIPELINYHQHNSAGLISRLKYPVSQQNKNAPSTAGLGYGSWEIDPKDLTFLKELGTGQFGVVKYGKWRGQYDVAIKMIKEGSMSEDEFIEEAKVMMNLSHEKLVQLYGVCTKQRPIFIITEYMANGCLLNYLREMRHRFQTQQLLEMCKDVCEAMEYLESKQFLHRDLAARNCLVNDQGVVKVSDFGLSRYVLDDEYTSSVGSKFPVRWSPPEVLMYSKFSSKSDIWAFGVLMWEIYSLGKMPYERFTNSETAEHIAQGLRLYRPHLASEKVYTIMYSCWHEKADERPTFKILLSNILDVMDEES

In the case of `C[C@H]1CC[C@@H](Nc2n[nH]c3nccc(-c4ccc(CNC(=O)c5noc(C(C)(C)C)n5)c(F)c4)c23)CN1C(=O)CC#N` [Example 140, 5-tert-butyl-N-{[4-(3-{[(3R,6S)-1-(2-cyanoacetyl)-6-methylpiperidin-3-yl]amino}-1H-pyrazolo[3,4-b]pyridin-4-yl)-2-fluorophenyl]methyl}-1,2,4-oxadiazole-3-carboxamide], the IC50 (Btk; [1]) is reported as less than 10 nM, the IC50 (Btk; [2]) is reported as 2.65 nM and the IC50 (panel of kinases) is reported as 1770 nM. For the same compound, the IC50 (TEC) was 855 nM and the TEC/Btk (TEC) was 323.
In the case of `C[C@H]1CC[C@@H](Nc2n[nH]c3nccc(-c4ccc(CNC(=O)c5noc(C(C)(C)C)n5)c(F)c4)c23)CN1CC#N` [Example 143, 5-tert-butyl-N-{[4-(3-{[(3R,6S)-1-(cyanomethyl)-6-methylpiperidin-3-yl]amino}-1H-pyrazolo[3,4-b]pyridin-4-yl)-2-fluorophenyl]methyl}-1,2,4-oxadiazole-3-carboxamide], the IC50 (Btk; [1]) is reported as less than 10 nM, the IC50 (Btk; [2]) is reported as 7.08 nM and the IC50 (panel of kinases) is reported as 2930 nM. For the same compound, the IC50 (TEC) was 2230 nM and the TEC/Btk (TEC) was 315.
`C[C@H]1CC[C@@H](Nc2n[nH]c3nccc(-c4ccc(CNC(=O)c5cc(C(C)(C)C)on5)c(F)c4)c23)CN1` [Example 144, 5-tert-butyl-N-{[2-fluoro-4-(3-{[(3R,6S)-6-methylpiperidin-3-yl]amino}-1H-pyrazolo[3,4-b]pyridin-4-yl)phenyl]methyl}-1,2-oxazole-3-carboxamide] gave an IC50 (Btk; [2]) of 225 nM, an IC50 (panel of kinases) of 912 nM and an IC50 (TEC) of 1320 nM. For the same compound, the TEC/Btk (TEC) was 6.
`C[C@H]1CC[C@@H](Nc2n[nH]c3nccc(-c4ccc(CNC(=O)c5cc(C(C)(C)C)on5)c(F)c4)c23)CN1C(=O)N(C)C` [Example 145, (2S,5R)-5-{[4-(4-{[(5-tert-butyl-1,2-oxazol-3-yl)formamido]methyl}-3-fluorophenyl)-1H-pyrazolo[3,4-b]pyridin-3-yl]amino}-N,N,2-trimethylpiperidine-1-carboxamide] gave an IC50 (Btk; [1]) of less than 10 nM, an IC50 (Btk; [2]) of 1.93 nM and an IC50 (panel of kinases) of 1040 nM. For the same compound, the IC50 (TEC) was 1060 nM and the TEC/Btk (TEC) was 549.
Work on `C=CC(=O)N1C[C@H](Nc2n[nH]c3nccc(-c4ccc(CNC(=O)c5cc(C(C)(C)C)on5)c(F)c4)c23)CC[C@@H]1C` [Example 146, 5-tert-butyl-N-{[2-fluoro-4-(3-{[(3R,6S)-6-methyl-1-(prop-2-enoyl)piperidin-3-yl]amino}-1H-pyrazolo[3,4-b]pyridin-4-yl)phenyl]methyl}-1,2-oxazole-3-carboxamide] yielded an IC50 (Btk; [1]) of less than 10 nM, an IC50 (Btk; [2]) of 0.202 nM and an IC50 (panel of kinases) of 21 nM. It also gave an IC50 (TEC) of 47 nM and a TEC/Btk (TEC) of 234.
`C[C@H]1CC[C@@H](Nc2n[nH]c3nccc(-c4ccc(CNC(=O)c5nc(C(C)(C)C)no5)c(F)c4)c23)CN1` [Example 147, 3-tert-butyl-N-{[2-fluoro-4-(3-{[(3R,6S)-6-methylpiperidin-3-yl]amino}-1H-pyrazolo[3,4-b]pyridin-4-yl)phenyl]methyl}-1,2,4-oxadiazole-5-carboxamide] gave an IC50 (Btk; [2]) of 84.4 nM, an IC50 (panel of kinases) of 5530 nM and an IC50 (TEC) greater than 10000 nM. It also gave a TEC/Btk (TEC) greater than 100.
`C=CC(=O)N1C[C@H](Nc2n[nH]c3nccc(-c4ccc(CNC(=O)c5nc(C(C)(C)C)no5)c(F)c4)c23)CC[C@@H]1C` [Example 148, 3-tert-butyl-N-{[2-fluoro-4-(3-{[(3R,6S)-6-methyl-1-(prop-2-enoyl)piperidin-3-yl]amino}-1H-pyrazolo[3,4-b]pyridin-4-yl)phenyl]methyl}-1,2,4-oxadiazole-5-carboxamide] gave an IC50 (Btk; [1]) of less than 10 nM, an IC50 (Btk; [2]) of 0.0924 nM and an IC50 (panel of kinases) of 12 nM. It also gave an IC50 (TEC) of 28 nM and a TEC/Btk (TEC) of 305.
Work on `CC1(C)Cc2cc(C(=O)NCc3ccc(-c4ccnc5[nH]nc(N[C@@H]6CCNC6)c45)cc3F)[nH]c2C1` [Example 149, N-{[2-fluoro-4-(3-{[(3R)-pyrrolidin-3-yl]amino}-1H-pyrazolo[3,4-b]pyridin-4-yl)phenyl]methyl}-5,5-dimethyl-1H,4H,5H,6H-cyclopenta[b]pyrrole-2-carboxamide] yielded an IC50 (Btk; [2]) of 739 nM, an IC50 (panel of kinases) greater than 10000 nM and an IC50 (TEC) greater than 10000 nM. For the same compound, the TEC/Btk (TEC) was greater than 100.
`CC(C)(C)c1ccc(C(=O)Nc2cccc(-c3ccnc4[nH]nc(N[C@@H]5CCNC5)c34)c2CO)cc1` [Example 150, 4-tert-butyl-N-[2-(hydroxymethyl)-3-(3-{[(3R)-pyrrolidin-3-yl]amino}-1H-pyrazolo[3,4-b]pyridin-4-yl)phenyl]benzamide] was tested, and the IC50 (Btk; [2]) was 35.3 nM, the IC50 (panel of kinases) was greater than 10000 nM and the IC50 (TEC) was greater than 10000 nM. The TEC/Btk (TEC) was greater than 100.
In the case of `CC(C)(C)c1nc(C(=O)NCc2ccc(-c3ccnc4[nH]nc(N[C@H]5CC[C@H](N)CC5)c34)cc2F)no1` [Example 151, 5-tert-butyl-N-{[2-fluoro-4-(3-{[(1r,4r)-4-aminocyclohexyl]amino}-1H-pyrazolo[3,4-b]pyridin-4-yl)phenyl]methyl}-1,2,4-oxadiazole-3-carboxamide], the IC50 (Btk; [2]) is reported as 21.7 nM, the IC50 (panel of kinases) is reported as 8120 nM and the IC50 (TEC) is reported as 8270 nM.
`C=CC(=O)N[C@H]1CC[C@H](Nc2n[nH]c3nccc(-c4ccc(CNC(=O)c5noc(C(C)(C)C)n5)c(F)c4)c23)CC1` [Example 152, 5-tert-butyl-N-{[2-fluoro-4-(3-{[(1r,4r)-4-(prop-2-enamido)cyclohexyl]amino}-1H-pyrazolo[3,4-b]pyridin-4-yl)phenyl]methyl}-1,2,4-oxadiazole-3-carboxamide] gave an IC50 (Btk; [1]) of less than 10 nM, an IC50 (Btk; [2]) of 3.41 nM and an IC50 (panel of kinases) of 496 nM. For the same compound, the IC50 (TEC) was 2680 nM.
Compound `CC(C)(C)c1nc(C(=O)NCc2ccc(-c3ccnc4[nH]nc(N[C@H]5CC[C@@H](N)CC5)c34)cc2F)no1` [Example 153, 5-tert-butyl-N-{[2-fluoro-4-(3-{[(1s,4s)-4-aminocyclohexyl]amino}-1H-pyrazolo[3,4-b]pyridin-4-yl)phenyl]methyl}-1,2,4-oxadiazole-3-carboxamide] has an IC50 (Btk; [2]) of 18.9 nM, an IC50 (panel of kinases) of 2000 nM and an IC50 (TEC) of 3200 nM. The TEC/Btk (TEC) was 169.
`C=CC(=O)N[C@H]1CC[C@@H](Nc2n[nH]c3nccc(-c4ccc(CNC(=O)c5noc(C(C)(C)C)n5)c(F)c4)c23)CC1` [Example 154, 5-tert-butyl-N-{[2-fluoro-4-(3-{[(1s,4s)-4-(prop-2-enamido)cyclohexyl]amino}-1H-pyrazolo[3,4-b]pyridin-4-yl)phenyl]methyl}-1,2,4-oxadiazole-3-carboxamide] gave an IC50 (Btk; [1]) of less than 10 nM, an IC50 (Btk; [2]) of 0.237 nM and an IC50 (panel of kinases) of 229 nM. It also gave an IC50 (TEC) of 409 nM and a TEC/Btk (TEC) of 1726.
With `CC(C)(C)c1nc(NC(=O)Nc2ccc(-c3ccnc4[nH]nc(N[C@@H]5CCNC5)c34)cc2F)no1` [Example 155, 3-(5-tert-butyl-1,2,4-oxadiazol-3-yl)-1-[2-fluoro-4-(3-{[(3R)-pyrrolidin-3-yl]amino}-1H-pyrazolo[3,4-b]pyridin-4-yl)phenyl]urea] the IC50 (Btk; [2]) was greater than 10000 nM, the IC50 (panel of kinases) was greater than 10000 nM and the IC50 (TEC) was greater than 10000 nM.
`C=CC(=O)N1CC[C@@H](Nc2n[nH]c3nccc(-c4ccc(NC(=O)Nc5noc(C(C)(C)C)n5)c(F)c4)c23)C1` [Example 156, 3-(5-tert-butyl-1,2,4-oxadiazol-3-yl)-1-[2-fluoro-4-(3-{[(3R)-1-(prop-2-enoyl)pyrrolidin-3-yl]amino}-1H-pyrazolo[3,4-b]pyridin-4-yl)phenyl]urea] showed an IC50 (Btk; [2]) of 639 nM, an IC50 (panel of kinases) of 111 nM and an IC50 (TEC) of 407 nM. It also gave a TEC/Btk (TEC) of 1.

Source: patent publication US20180194762A1 (Pharmacyclics LLC, priority 2017, published 2018)
